# Test results reported in publication PMC6442474 (Planta medica, 2014).
# Molecular target: tau (2N4R) (Homo sapiens, UniProt P10636)
# Test: arachidonic acid-induced tau aggregation, filter trap assay dose-response
# Assay type: biochemical
# tau (2N4R), sequence (P10636 1-441 isoform P10636-8): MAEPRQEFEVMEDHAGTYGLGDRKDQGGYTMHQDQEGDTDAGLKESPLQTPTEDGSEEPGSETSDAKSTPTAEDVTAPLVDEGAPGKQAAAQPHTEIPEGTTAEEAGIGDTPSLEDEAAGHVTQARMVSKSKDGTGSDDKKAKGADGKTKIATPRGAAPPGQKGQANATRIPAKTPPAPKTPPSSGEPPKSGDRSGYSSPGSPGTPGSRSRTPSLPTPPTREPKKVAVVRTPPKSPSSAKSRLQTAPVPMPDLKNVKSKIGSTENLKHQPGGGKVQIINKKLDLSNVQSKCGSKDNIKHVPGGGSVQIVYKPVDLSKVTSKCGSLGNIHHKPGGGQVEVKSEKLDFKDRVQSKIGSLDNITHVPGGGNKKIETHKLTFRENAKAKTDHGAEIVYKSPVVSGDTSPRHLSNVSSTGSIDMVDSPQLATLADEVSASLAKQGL
row,IC50 [µM],Compound
1,205 ± 28,"O=C1c2cc(CO)cc(O)c2C(=O)c2c1cc(O)c(O)c2O [2,ω-dihydroxyemodin]"
2,39 ± 2,O=C1c2c(cc(CO)c(O)c2O)C(=O)c2c(O)c(O)cc(O)c21 [asperthecin]
3,177 ± 103,asperbenzaldehyde
